36 compounds from patent US9920010B2, “CXCR7 receptor modulators” (IDORSIA PHARMACEUTICALS LTD, priority 2013, dated 2018) can be followed below.

Molecules are shown by their SMILES.

In the experiment the target is T1, CXCR7 (Homo sapiens, UniProt P25106).
T1 construct: host or cells: CHO-K1 (PathHunter CHO-K1 CXCR7 b-arrestin cell line, stably transfected)
T1 sequence (P25106 whole entry): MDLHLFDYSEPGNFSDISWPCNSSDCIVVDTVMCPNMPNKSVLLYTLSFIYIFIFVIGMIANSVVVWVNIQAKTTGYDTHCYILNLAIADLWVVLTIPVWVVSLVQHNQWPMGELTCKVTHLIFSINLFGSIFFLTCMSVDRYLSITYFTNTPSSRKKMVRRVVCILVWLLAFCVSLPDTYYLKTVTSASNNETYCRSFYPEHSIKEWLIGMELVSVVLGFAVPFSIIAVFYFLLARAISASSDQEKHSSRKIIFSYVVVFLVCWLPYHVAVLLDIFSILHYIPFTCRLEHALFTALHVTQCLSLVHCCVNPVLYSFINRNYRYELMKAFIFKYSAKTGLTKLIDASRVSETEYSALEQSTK
T1 sequence (P32121 whole entry partner): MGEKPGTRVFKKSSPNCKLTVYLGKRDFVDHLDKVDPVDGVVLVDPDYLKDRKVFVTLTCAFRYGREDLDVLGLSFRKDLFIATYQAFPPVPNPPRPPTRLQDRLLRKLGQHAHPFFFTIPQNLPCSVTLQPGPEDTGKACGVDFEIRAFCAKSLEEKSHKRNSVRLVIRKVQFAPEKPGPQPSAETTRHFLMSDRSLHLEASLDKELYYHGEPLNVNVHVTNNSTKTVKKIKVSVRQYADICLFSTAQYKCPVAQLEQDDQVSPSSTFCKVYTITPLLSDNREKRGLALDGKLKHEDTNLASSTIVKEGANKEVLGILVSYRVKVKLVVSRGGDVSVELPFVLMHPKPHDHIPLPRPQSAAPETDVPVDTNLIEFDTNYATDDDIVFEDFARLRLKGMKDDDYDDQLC
As to the kind of experiment: PathHunter CHO-K1 CXCR7 b-arrestin recruitment assay (CXCR7 agonistic activity). Type of experiment: cell-based. The settings on record: PathHunter CHO-K1 CXCR7 b-arrestin cell line. In short, it runs like this:
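Stable CHO-K1 line with C-terminally ProLink-tagged CXCR7 and β-arrestin 2–EA fusion; β-arrestin recruitment restores β-gal activity, read by chemiluminescence after 1 h RT detection. Cells seeded 24 h, starved in OPTIMEM 3–4 h, exposed to compounds 90 min at 37 °C in HBSS/HEPES/BSA. Geometric-mean EC50 from repeated measurements.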
Turning to `COCCN1CCc2c(CCC(=O)N(Cc3ccccc3C(F)(F)F)CC(C)(C)O)cccc2C1` [Example 341, N-(2-Hydroxy-2-methyl-propyl)-3-[2-(2-methoxy-ethyl)-1,2,3,4-tetrahydro-isoquinolin-5-yl]-N-(2-trifluoromethyl-benzyl)-propionamide], the EC50 came to 397 nM.

The compound `NS(=O)(=O)CCN(Cc1ccccc1C(F)(F)F)C(=O)CNc1cccc2c1CCN(CC1CC1)C2` [Example 233, 2-(2-Cyclopropylmethyl-1,2,3,4-tetrahydro-isoquinolin-5-ylamino)-N-(2-sulfamoyl-ethyl)-N-(2-trifluoromethyl-benzyl)-acetamide] displayed an EC50 of 72 nM.

`CNCCN(Cc1ccccc1C(F)(F)F)C(=O)CNc1cccc2c1CCN(C(C)=O)C2` [compound 445, 2-(2-Acetyl-1,2,3,4-tetrahydro-isoquinolin-5-ylamino)-N-(2-methylamino-ethyl)-N-(2-trifluoromethyl-benzyl)-acetamide] displayed an EC50 of 11 nM. This EC50 lies about 6.5-fold lower than the previous one.

The compound `COCCN1CCc2c(cccc2NCC(=O)N(Cc2ncccc2Cl)CC(C)(C)O)C1` [Example 307, N-(3-Chloro-pyridin-2-ylmethyl)-N-(2-hydroxy-2-methyl-propyl)-2-[2-(2-methoxy-ethyl)-1,2,3,4-tetrahydro-isoquinolin-5-ylamino]-acetamide] displayed an EC50 of 423 nM.

`CCN1CCc2cccc(NCC(=O)N(CCN(C)C)Cc3nc(C)cs3)c2C1` [compound 536] registered an EC50 of 92 nM.

As for `CNCCN(Cc1ccccc1C(F)(F)F)C(=O)CNc1cccc2c1CCN(C(=O)OCCF)C2` [compound 400, 5-({[(2-Methylamino-ethyl)-(2-trifluoromethyl-benzyl)-carbamoyl]-methyl}-amino)-3,4-dihydro-1H-isoquinoline-2-carboxylic acid 2-fluoro-ethyl ester], the midpoint of the response, the EC50, lay at 31 nM.

Take `CN(C)CCN(Cc1ncccc1C(F)(F)F)C(=O)Cc1cccc2c1CCN(CC1CC1)C2` [Example 5, 2-(2-Cyclopropylmethyl-1,2,3,4-tetrahydro-isoquinolin-5-yl)-N-(2-dimethylamino-ethyl)-N-(3-trifluoromethyl-pyridin-2-ylmethyl)-acetamide]: the midpoint of the response, the EC50, lay at 187 nM. This EC50 is about 6-fold higher than that of the compound before.

`CN(C)CCN(Cc1ccccc1C(F)(F)F)C(=O)CNc1cccc2c1CN(S(=O)(=O)c1ccccc1)CC2` [compound 545] registered an EC50 of 80 nM.

`CN(C)CCN(Cc1ncccc1C(F)(F)F)C(=O)CNc1cccc2c1CCN(C1CCOC1)C2` (racemic) [Example 365, rac-N-(2-Dimethylamino-ethyl)-2-[2-(tetrahydro-furan-3-yl)-1,2,3,4-tetrahydro-isoquinolin-5-ylamino]-N-(3-trifluoromethyl-pyridin-2-ylmethyl)-acetamide] showed an EC50 of 35 nM. Against the preceding compound, the EC50 is about 2.3-fold lower.

`CCN1CCc2cccc(NCC(=O)N(Cc3nc(C)cs3)Cc3ccccc3C(F)(F)F)c2C1` [compound 520] gave an EC50 of 188 nM.

Take `CN(C)CCN(Cc1ccccc1C(F)(F)F)C(=O)CNc1cccc2c1CCN(CC1(C)COC1)C2` [Example 358, N-(2-Dimethylamino-ethyl)-2-[2-(3-methyl-oxetan-3-ylmethyl)-1,2,3,4-tetrahydro-isoquinolin-5-ylamino]-N-(2-trifluoromethyl-benzyl)-acetamide]: the EC50 is 26 nM.

`CC(C)COC(=O)N1CCc2c(cccc2NCC(=O)N(CCN(C)C)Cc2ccccc2)C1` [compound 122] showed an EC50 of 337 nM. Against the preceding compound, the EC50 is about 13-fold higher.

Take `CCN1CCc2c(cccc2OCC(=O)N(CCN(C)C)Cc2ccccc2)C1` [compound 165]: a half-maximal response (EC50) required 61 nM.

On to `CCN1CCc2cccc(NCC(=O)N(CCN(C)C)Cc3ccc(C)cn3)c2C1` [compound 527], for which a half-maximal effect (EC50) was put at 162 nM.

Compound `CCN1CCc2cccc(NCC(=O)N(CCN(C)C)Cc3cnc(N(C)C)nc3)c2C1` [compound 534] yielded an EC50 of 395 nM.

`O=C(CNc1cccc2c1CCN(CC1CC1)C2)N(Cc1ccccc1C(F)(F)F)C1CCNCC1` [compound 440, 2-(2-Cyclopropylmethyl-1,2,3,4-tetrahydro-isoquinolin-5-ylamino)-N-piperidin-4-yl-N-(2-trifluoromethyl-benzyl)-acetamide] showed an EC50 of 15 nM.

For `CCOC(=O)N1CCc2c(cccc2NCC(=O)N(CCN(C)C)Cc2ccccc2)C1` [compound 117], a half-maximal effect (EC50) was put at 79 nM.

As to `C=CCN(C)CCN(Cc1ccccc1C(F)(F)F)C(=O)CNc1cccc2c1CCN(CC1CC1)C2` [Example 245, N-[2-(Allyl-methyl-amino)-ethyl]-2-(2-cyclopropylmethyl-1,2,3,4-tetrahydro-isoquinolin-5-ylamino)-N-(2-trifluoromethyl-benzyl)-acetamide], the EC50 was found to be 3 nM. Against the preceding compound, the EC50 is about 26-fold lower.

Take `CCC(=O)N1CCc2c(cccc2NCC(=O)N(CCN(C)C)Cc2ccc(C)cc2)C1` [Example 16, N-(2-Dimethylamino-ethyl)-N-(4-methyl-benzyl)-2-(2-propionyl-1,2,3,4-tetrahydro-isoquinolin-5-ylamino)-acetamide]: the midpoint of the response, the EC50, lay at 63 nM.

`CN1CCC(N(Cc2ccccc2C(F)(F)F)C(=O)CNc2cccc3c2CCN(CC2CC2)C3)CC1` [Example 105, 2-(2-Cyclopropylmethyl-1,2,3,4-tetrahydro-isoquinolin-5-ylamino)-N-(1-methyl-piperidin-4-yl)-N-(2-trifluoromethyl-benzyl)-acetamide] had an EC50 of 9 nM. This EC50 lies about 7-fold lower than the previous one.

Compound `COCC(O)CN(Cc1ccccc1C(F)(F)F)C(=O)CNc1cccc2c1CCN(CC1CC1)C2` (stereo not drawn) [Example 223, 2-(2-Cyclopropylmethyl-1,2,3,4-tetrahydro-isoquinolin-5-ylamino)-N-(2-hydroxy-3-methoxy-propyl)-N-(2-trifluoromethyl-benzyl)-acetamide] displayed an EC50 of 10 nM.

Compound `COCCN1CCc2c(/C=C/C(=O)N(CCN(C)C)Cc3ncccc3Cl)cccc2C1` [Example 327, (E)-N-(3-Chloro-pyridin-2-ylmethyl)-N-(2-dimethylamino-ethyl)-3-[2-(2-methoxy-ethyl)-1,2,3,4-tetrahydro-isoquinolin-5-yl]-acrylamide] gave an EC50 of 20 nM.

As to `CCOC(=O)CN(Cc1ccccc1)C(=O)CNc1cccc2c1CCN(CC1CC1)C2` [Example 71, {Benzyl-[2-(2-cyclopropylmethyl-1,2,3,4-tetrahydro-isoquinolin-5-ylamino)-acetyl]-amino}-acetic acid ethyl ester], the EC50 came out at 326 nM.

In turn, `CNCCN(Cc1ncccc1C(F)(F)F)C(=O)CNc1cccc2c1CCN(C(=O)NC1CCCCC1)C2` [compound 433] registered an EC50 of 166 nM.

Compound `CN(C)CCN(Cc1ccc(F)cn1)C(=O)CNc1cccc2c1CCN(CC1CC1)C2` [Example 267, 2-(2-Cyclopropylmethyl-1,2,3,4-tetrahydro-isoquinolin-5-ylamino)-N-(2-dimethylamino-ethyl)-N-(5-fluoro-pyridin-2-ylmethyl)-acetamide] showed an EC50 of 33 nM.

As for `CCN1CCc2cccc(NCC(=O)N(CCN(C)C)Cc3ccc(Cl)cn3)c2C1` [compound 530], the response was half-maximal at 174 nM (EC50). This EC50 lies about 5.3-fold higher than the previous one.

In the case of `CCC(=O)N1CCc2c(cccc2NCC(=O)N(CCN(C)C)Cc2cccc(C(F)(F)F)c2)C1` [Example 33, N-(2-Dimethylamino-ethyl)-2-(2-propionyl-1,2,3,4-tetrahydro-isoquinolin-5-ylamino)-N-(3-trifluoromethyl-benzyl)-acetamide], it took 16 nM to reach a half-maximal effect (EC50).

As to `C=CCN(C)CCN(Cc1ccccc1C(F)(F)F)C(=O)CCc1cccc2c1CCN(CC=C)C2` [Example 348, N-[2-(Allyl-methyl-amino)-ethyl]-3-(2-allyl-1,2,3,4-tetrahydro-isoquinolin-5-yl)-N-(2-trifluoromethyl-benzyl)-propionamide], the EC50 came to 13 nM.

The compound `CNCCN(Cc1ncccc1C(F)(F)F)C(=O)CNc1cccc2c1CCN(CC1CC1)C2` [compound 437, 2-(2-Cyclopropylmethyl-1,2,3,4-tetrahydro-isoquinolin-5-ylamino)-N-(2-methylamino-ethyl)-N-(3-trifluoromethyl-pyridin-2-ylmethyl)-acetamide] returned an EC50 of 5 nM.

Compound `O=C(CNc1cccc2c1CCN(CC1CC1)C2)N(Cc1ccccc1C(F)(F)F)C1CCC(O)CC1` (stereo not drawn) [Example 222, 2-(2-Cyclopropylmethyl-1,2,3,4-tetrahydro-isoquinolin-5-ylamino)-N-(4-hydroxy-cyclohexyl)-N-(2-trifluoromethyl-benzyl)-acetamide] gave an EC50 of 27 nM.

In turn, `CCN1CCc2cccc(NCC(=O)N(CCN(C)C)Cc3ncccc3C)c2C1` [compound 525, N-(2-Dimethylamino-ethyl)-2-(2-ethyl-1,2,3,4-tetrahydro-isoquinolin-8-ylamino)-N-(3-methyl-pyridin-2-ylmethyl)-acetamide] came in with an EC50 of 41 nM.

As for `CCN1CCc2c(cccc2OCC(=O)N(CCN(C)C)Cc2ccccc2Cl)C1` [compound 171, N-(2-Chloro-benzyl)-N-(2-dimethylamino-ethyl)-2-(2-ethyl-1,2,3,4-tetrahydro-isoquinolin-5-yloxy)-acetamide], a half-maximal effect (EC50) was put at 18 nM.

The compound `CCN1CCc2cccc(NCC(=O)N(CCc3ccccc3C(F)(F)F)CCN(C)C)c2C1` [compound 538] gave an EC50 of 155 nM.

The compound `COCCN1CCc2c(CCC(=O)N(CCN3CCC(F)(F)CC3)Cc3ncccc3Cl)cccc2C1` [Example 345, N-(3-Chloro-pyridin-2-ylmethyl)-N-[2-(4,4-difluoro-piperidin-1-yl)-ethyl]-3-[2-(2-methoxy-ethyl)-1,2,3,4-tetrahydro-isoquinolin-5-yl]-propionamide] displayed an EC50 of 400 nM.

In turn, `O=C(CNc1cccc2c1CN(CC1CC1)CC2)N(CC(=O)N1CC(F)(F)C1)Cc1ccccc1C(F)(F)F` [compound 482, 2-(2-Cyclopropylmethyl-1,2,3,4-tetrahydro-isoquinolin-8-ylamino)-N-[2-(3,3-difluoro-azetidin-1-yl)-2-oxo-ethyl]-N-(2-trifluoromethyl-benzyl)-acetamide] yielded a concentration for a half-maximal effect (EC50) of 32 nM.

`CC(C)(O)CN(Cc1ncccc1Br)C(=O)CNc1cccc2c1CN(C(=O)[C@H]1C[C@H]1F)CC2` (relative stereo) [compound 461] yielded an EC50 of 420 nM.
